Key:
Type in all cases: physicochemical
[1] = Degradation of PLGH by octreotide acetate in NMP, average molecular weight by GPC (Example 4); conditions: ambient temperature, 2 hours
Method: A solution of 34 wt % of 50/50 carboxyl terminated polylactide glycolide (PLGH at a 1:1 ratio of lactide to glycolide) in N-methylpyrrolidone (NMP) was prepared and divided into several aliquots. To a 950 mg aliquot was added 57.01 mg of octreotide acetate (OA) to provide a solution of 5.66 wt % octreotide acetate in a 34 wt % solution of PLGH in NMP. Upon standing at ambient temperature for 2 hours, the aliquot with OA and a control aliquot containing only PLGH and NMP were analyzed for average molecular weight of the PLGH by GPC analysis. The retention times were correlated against predetermined molecular weight standards of polylactide-glycolide which had been calibrated by GC-mass spectroscopy.

[2] = Effect of differing octreotide complexes on decomposition of PLGH in NMP, GPC (Example 7); conditions: 35 wt % 50/50 PLGH in NMP, over 25 days, FIG. 3
Method: Aliquots of a solution of 50/50 polylactide glycolide having an inherent viscosity of 0.57 dL/g and an average molecular weight of 45,000 were prepared so as to provide 35 wt % aliquots of the PLGH in N-methylpyrrolidone (NMP). To individual aliquots was added one of the following octreotide free base (OB)—complexes: OB-citrate; OB mesylate; OB-acetate; OB-Glucuronate. The OB-citrate complex was studied at several ratios: excess OB, 1:3 exchange, 1:1 exchange and citrate to pH 7. The average molecular weight of the PLGH in the solution was periodically determined over a period of 25 days by GPC analysis using pre-calibrated polylactide-glycolide standards for retention times. The following graph presents the results. […] The data determined by this experiment are presented graphically in FIG. 3.

[3] = Precipitation / formulation studies of GHRP-1/ATRIGEL formulations (Example 9); conditions: bulk GHRP-1 citrate solution, time needed for commercial manufacturing
Method: This formulation was identified as AL3922.02. […] Consequently, a fourth formulation (AL3922.04) was developed.
Table 1 summarizes the precipitation studies that were conducted for each formulation. The acronyms are identified as follows: GHRP-1 is a known […] mimicking growth hormone releasing peptide; DL2A is poly (DL) lactide-glycolide (75/25) having a terminal carboxyl group and an average molecular weight of about 13 kDa and an inherent viscosity of about 0.17 dL/g; NMP is N-methylpyrrolidone.

With `C[C@@H](O)[C@@H]1NC(=O)[C@H](CCCCN)NC(=O)[C@@H](Cc2c[nH]c3ccccc23)NC(=O)[C@H](Cc2ccccc2)NC(=O)[C@@H](NC(=O)[C@H](N)Cc2ccccc2)CSSC[C@@H](C(=O)N[C@H](CO)[C@@H](C)O)NC1=O` (relative stereo) [octreotide acetate, L-cysteinamide, D-phenylalanyl-L-cysteinyl-L-phenylalanyl-D-tryptophyl-L-lysyl-L-threonyl-N-[2-hydroxy-1-(hydroxymethyl)propyl]-, cyclic (2→7)-disulfide; [R—(R*,R*)]] the “average molecular weight of the PLGH” value ([1]; 5.66 wt % octreotide acetate in 34 wt % 50/50 PLGH in NMP, control aliquot 37,628 daltons) was 20,173 daltons, the “degradation of the PLGH molecular weight” value ([1]; 34 wt % PLGH in NMP) was “significant degradation” and the “degradation of PLGH average molecular weight by octreotide complexes” value [2] was “immediate dramatic degradation”.
In the case of “GHRP-1: growth hormone releasing peptide; seven amino acid peptide containing one lysine and one tryptophan (ATRIGEL)”, the “drug precipitation / remaining in solution (Comments)” value [3] is reported as “tended to precipitate out of the solution over a couple of hours”.

— US8173148B2, “Stabilized polymeric delivery system comprising a water-insoluble polymer and an organic liquid” (priority 2004, dated 2012)
